Laboratory results from patent US20120289602A1, “PHARMACEUTICAL COMPOSITION FOR TREATING OR PREVENTING BURN INJURIES” (priority 2009, published 2012).

Tests used:
Type in all cases: in vivo
[1] = tested on: contact burn injury on the back of rats; assay: Measurement of lactate dehydrogenase in serum through blood chemistry after burn injury; details: 10 mg/5 ml/kg intravenously twice a day, FIG. 1
Procedure: (§1) To confirm the therapeutic effect of 2-hydroxy-TTBA against burn injury, contact burn injury is induced for 30 seconds on the back of rats (on the both side of skin) using a brass comb preheated for 3 minutes in the boiling water (maintaining at 100° C.). After 5 minutes, 2-hydroxy-TTBA 10 mg/5 ml/kg were administered to intravenously for 5 minutes. Since then, twice-a-day administration (at an interval of 10˜12 hours) was sustained for 7 days on the same conditions. The same amount of saline without the compound was administered to the vehicle-treated group in the same manner. Groups of burn experiments were the same as below table 1.
The Measurement of Lactate Dehydrogenase in Serum Through Blood Chemistry
Lactate dehydrogenase (LDH) is an enzyme distributed to almost all the tissues and catalyzing reversible reactions between pyruvic acid and lactic acid.
It is known that serum LDH level is elevated when tissues and cells are destroyed. Thus, the amount of LDH was measured in serum samples from each group except hemolyzed samples that may interfere with test results.

[2] = tested on: contact burn injury on the back of rats; assay: Contact burn injury in rats: animals that died within 7 days; details: within 7 days after burn injury, 10 mg/5 ml/kg intravenously, twice a day for 7 days, 7 animals in group
Procedure: as §1
When analyzing the results, number of animals of the normal group for comparison, number of animals in each group, and the number of animals that died within 7 days after the burn injury were shown in above table 1. Two rats in the burn control group died at 5 and 7 days, respectively, after burn injury, but all of another experimental group survived.

[3] = tested on: contact burn injury on the back of rats; assay: Histology of zone of stasis after burn injury (hematoxylin-eosin, cresyl violet, Masson's trichrom staining)
Procedure: as §1
FIG. 3 is the result comparing the state of the epithelial layer through hematoxylin-eosin staining of tissues according to the groups. […] Some cases that hyperplasia of epidermis thicker than normal epithelial layers occurred could be also observed.
Eschar formation and frequency of wound epidermis formation was measured by analyzing total 28 tissue areas per group (4 zones of stasis per rat, 7 rats per group). As a result, the wound switching frequency of approximately 93% occurred in the burn control group was decreased to about 18% and 4%, respectively, in the veheicle-treated and 2-hydroxy-TTBA-treated groups. Also, the rate of wound epidermis formation was increased by approximately 32% and 72%, respectively, in comparison with the burn control group. The result was shown in the below table 2 (histological appearance: Eschar Formation and frequency of wound epidermis formation).
FIG. 4 was the photograph that observed the state of tissues of full-thickness skin through hematoxylin-eosin staining via 10× microscope.
FIG. 5 is the photograph observed the live cells in the zone of stasis by cresyl violet staining via 10× microscope. In the burn control group and the vehicle-treated group, follicles were rarely observed and large amounts of inflammatory cells were observed throughout the full-thickness skin.
FIG. 6 is the photograph that observed collagen of skin tissues and muscle fibers in the zone of stasis by Masson's trichrom staining. In the normal group, blue-stained collagen was evenly distributed throughout the dermis, and muscle fibers were stained red. In the burn control group, collagen was deposited irregularly below eschar, the level of staining was weak relative to the normal group. Almost of the muscle fibers were damaged and were not stained. In the vehicle-treated group, the amount of collagen was most abundantly observed relative to the other groups, even to a very high level compared to the normal control. In addition, the muscle fibers with damage were not stained, and significant amount of bleeding and infiltration of inflammatory cells were accompanied.

[4] = tested on: contact burn injury on the back of rats; assay: Observation of skin appearance on the back after burn injury (zone of stasis); details: skin on the back 7 days after burn injury, FIG. 2
Procedure: as §1
FIG. 2 is photographs that observed skin on the back 7 days after burn injury. Full thickness burns were induced in the both sides of back of experimental rats using a preheated brass comb with 4 rectangular shapes of size 10×20 mm. At 2 hours after induction, 4 pale-colored or darkish zones of coagulation (or zones of tissue necrosis) and 3 zones of stasis (or zones of tissue injury) appeared on the both sides of back. […]
Therefore, to evaluate the efficacy in this experiment, among the zone of stasis, the remaining 4 regions (a rectangular area indicated the dotted lines) except regions toward the head close to a medication vest among 6 areas appeared in a single rat were analyzed.

[5] = 28 tissue areas per group (4 zones of stasis per rat, 7 rats), 7 days after burn
[6] = zone of stasis, 7 days after burn, FIG. 4

O=C(O)c1cc(NCc2c(F)c(F)c(C(F)(F)F)c(F)c2F)ccc1O [2-hydroxy-TTBA, 2-Hydroxy-5-(2,3,5,6-tetrafluoro-4-trifluoromethyl-benzylamino)-benzoic acid]
LDH value in serum compared to burn control group [1]: reduced significantly
Number of dead animals [2]: 0
rate of wound epidermis formation, increase in comparison with the burn control group ([3]; 28 tissue areas per group): ~72%
Eschar formation (%) [3, 5]: 3.571%
Wound epidermis formation (%) [3, 5]: 71.429%
Eschar formation frequency ([3]; 28 tissue areas per group, approximately 93% in burn control group): ~4%
State of the epithelial layer, hematoxylin-eosin staining ([3]; FIG. 3): wound epidermis formation was in progress
Inflammatory cells in the zone of stasis, cresyl violet staining ([3]; FIG. 5): relatively few inflammatory cells were observed
Live cells in the zone of stasis, cresyl violet staining ([3]; FIG. 5): live follicles and epithelia were observed
Infiltration of inflammatory cells in full-thickness skin, hematoxylin-eosin staining [3, 6]: considerably inhibited except in the areas of muscle cells and subcutaneous tissues
Protection of skin structures in full-thickness skin, hematoxylin-eosin staining [3, 6]: not only a wound epidermis formation but also protective effects even in the hair follicles, sebaceous glands and muscle layers appeared
Skin condition by the naked eye [4]: restored to such a good skin condition that hair growth can be observed by the naked eye
Formation of eschar such as scab (skin appearance) ([4]; zone of stasis): occurred rarely
